Like-named read-outs stand apart in the source and are kept apart here.
What was measured:
[1] = biological target: T1, kinase enzymes (Homo sapiens, UniProt P42345); experiment: Enzyme binding assay (KINOMEscan, DiscoveRx), further kinases of Table A; conditions: MTOR_h
T1 construct: purchased DiscoveRx Corporation, San Diego (contract service, KINOMEscan)
Summary of the method: (§1)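 Binding affinities were measured on the KINOMEscan platform.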

[2] = biological target: T2, kinase enzymes (Homo sapiens, UniProt P48736); experiment: as above; conditions: PIK3Cγ_h
T2 construct: purchased DiscoveRx Corporation, San Diego (contract service, KINOMEscan)
T2 sequence (P48736 whole entry): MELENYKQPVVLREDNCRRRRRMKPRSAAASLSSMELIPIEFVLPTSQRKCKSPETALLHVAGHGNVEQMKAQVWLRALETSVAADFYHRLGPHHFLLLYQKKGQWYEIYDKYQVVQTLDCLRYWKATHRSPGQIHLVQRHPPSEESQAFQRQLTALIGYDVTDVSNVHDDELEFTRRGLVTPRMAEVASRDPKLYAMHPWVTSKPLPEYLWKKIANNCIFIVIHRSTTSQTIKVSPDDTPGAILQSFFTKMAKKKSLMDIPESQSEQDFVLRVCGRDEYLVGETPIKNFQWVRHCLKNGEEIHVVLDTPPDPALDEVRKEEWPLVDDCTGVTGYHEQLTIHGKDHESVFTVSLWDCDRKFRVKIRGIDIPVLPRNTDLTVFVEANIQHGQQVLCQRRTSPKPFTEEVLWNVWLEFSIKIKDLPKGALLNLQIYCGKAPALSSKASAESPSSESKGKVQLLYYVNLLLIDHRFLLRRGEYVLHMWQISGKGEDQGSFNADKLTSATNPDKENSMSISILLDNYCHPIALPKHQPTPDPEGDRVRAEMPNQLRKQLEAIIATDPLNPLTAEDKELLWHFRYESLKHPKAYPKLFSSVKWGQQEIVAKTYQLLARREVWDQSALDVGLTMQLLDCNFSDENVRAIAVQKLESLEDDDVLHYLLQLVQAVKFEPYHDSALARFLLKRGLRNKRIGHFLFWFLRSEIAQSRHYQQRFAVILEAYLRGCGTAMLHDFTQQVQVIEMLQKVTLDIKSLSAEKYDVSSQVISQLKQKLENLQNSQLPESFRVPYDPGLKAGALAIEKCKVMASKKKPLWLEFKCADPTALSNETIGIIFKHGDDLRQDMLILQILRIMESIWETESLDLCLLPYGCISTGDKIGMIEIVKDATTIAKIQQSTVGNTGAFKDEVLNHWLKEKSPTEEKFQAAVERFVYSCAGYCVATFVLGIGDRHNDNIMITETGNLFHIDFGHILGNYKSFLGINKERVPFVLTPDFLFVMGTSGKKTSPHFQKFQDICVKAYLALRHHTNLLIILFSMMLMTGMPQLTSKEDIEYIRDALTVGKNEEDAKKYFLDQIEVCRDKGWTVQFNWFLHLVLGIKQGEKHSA
Summary of the method: as §1

[3] = biological target: T3, kinase enzymes (Homo sapiens, UniProt P42336); experiment: as above; conditions: PIK3Cα_h
T3 construct: purchased DiscoveRx Corporation, San Diego (contract service, KINOMEscan)
T3 sequence (P42336 whole entry): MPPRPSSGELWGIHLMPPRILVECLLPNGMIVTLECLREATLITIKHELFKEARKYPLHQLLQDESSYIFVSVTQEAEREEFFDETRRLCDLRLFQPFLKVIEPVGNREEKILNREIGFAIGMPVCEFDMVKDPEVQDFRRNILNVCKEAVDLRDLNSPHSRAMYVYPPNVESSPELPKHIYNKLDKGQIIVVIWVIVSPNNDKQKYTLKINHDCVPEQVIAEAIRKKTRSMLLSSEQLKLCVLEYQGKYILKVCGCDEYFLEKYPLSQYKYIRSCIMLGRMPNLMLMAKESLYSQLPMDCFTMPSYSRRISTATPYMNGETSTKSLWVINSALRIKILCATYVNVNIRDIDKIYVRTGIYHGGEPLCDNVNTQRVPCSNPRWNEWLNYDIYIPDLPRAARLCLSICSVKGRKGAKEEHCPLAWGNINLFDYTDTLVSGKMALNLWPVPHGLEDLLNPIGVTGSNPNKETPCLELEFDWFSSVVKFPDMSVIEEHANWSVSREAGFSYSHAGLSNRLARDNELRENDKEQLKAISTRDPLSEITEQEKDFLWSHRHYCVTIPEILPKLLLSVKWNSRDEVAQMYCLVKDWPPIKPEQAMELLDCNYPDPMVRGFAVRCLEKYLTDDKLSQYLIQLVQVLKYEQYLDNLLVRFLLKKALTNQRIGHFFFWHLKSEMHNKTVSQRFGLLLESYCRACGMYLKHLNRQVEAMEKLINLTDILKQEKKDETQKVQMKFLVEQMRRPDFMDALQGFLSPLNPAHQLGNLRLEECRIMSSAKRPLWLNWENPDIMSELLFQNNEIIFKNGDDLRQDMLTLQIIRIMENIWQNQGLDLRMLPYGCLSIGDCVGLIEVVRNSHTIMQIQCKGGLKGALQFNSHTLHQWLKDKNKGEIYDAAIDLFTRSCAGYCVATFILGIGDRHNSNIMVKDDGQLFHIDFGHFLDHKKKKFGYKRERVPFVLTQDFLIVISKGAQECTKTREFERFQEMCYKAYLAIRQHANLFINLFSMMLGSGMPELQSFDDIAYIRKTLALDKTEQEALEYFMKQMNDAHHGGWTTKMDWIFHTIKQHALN
Summary of the method: as §1

[4] = biological target: T4, PI3Kβ (Homo sapiens, UniProt P42338); experiment: Enzyme binding assay (KINOMEscan, DiscoveRx); conditions: PIK3Cβ_h, read-out: Kd PIK3Cβ_h
T4 construct: purchased DiscoveRx Corporation, San Diego (contract service, KINOMEscan)
T4 sequence (P42338 whole entry): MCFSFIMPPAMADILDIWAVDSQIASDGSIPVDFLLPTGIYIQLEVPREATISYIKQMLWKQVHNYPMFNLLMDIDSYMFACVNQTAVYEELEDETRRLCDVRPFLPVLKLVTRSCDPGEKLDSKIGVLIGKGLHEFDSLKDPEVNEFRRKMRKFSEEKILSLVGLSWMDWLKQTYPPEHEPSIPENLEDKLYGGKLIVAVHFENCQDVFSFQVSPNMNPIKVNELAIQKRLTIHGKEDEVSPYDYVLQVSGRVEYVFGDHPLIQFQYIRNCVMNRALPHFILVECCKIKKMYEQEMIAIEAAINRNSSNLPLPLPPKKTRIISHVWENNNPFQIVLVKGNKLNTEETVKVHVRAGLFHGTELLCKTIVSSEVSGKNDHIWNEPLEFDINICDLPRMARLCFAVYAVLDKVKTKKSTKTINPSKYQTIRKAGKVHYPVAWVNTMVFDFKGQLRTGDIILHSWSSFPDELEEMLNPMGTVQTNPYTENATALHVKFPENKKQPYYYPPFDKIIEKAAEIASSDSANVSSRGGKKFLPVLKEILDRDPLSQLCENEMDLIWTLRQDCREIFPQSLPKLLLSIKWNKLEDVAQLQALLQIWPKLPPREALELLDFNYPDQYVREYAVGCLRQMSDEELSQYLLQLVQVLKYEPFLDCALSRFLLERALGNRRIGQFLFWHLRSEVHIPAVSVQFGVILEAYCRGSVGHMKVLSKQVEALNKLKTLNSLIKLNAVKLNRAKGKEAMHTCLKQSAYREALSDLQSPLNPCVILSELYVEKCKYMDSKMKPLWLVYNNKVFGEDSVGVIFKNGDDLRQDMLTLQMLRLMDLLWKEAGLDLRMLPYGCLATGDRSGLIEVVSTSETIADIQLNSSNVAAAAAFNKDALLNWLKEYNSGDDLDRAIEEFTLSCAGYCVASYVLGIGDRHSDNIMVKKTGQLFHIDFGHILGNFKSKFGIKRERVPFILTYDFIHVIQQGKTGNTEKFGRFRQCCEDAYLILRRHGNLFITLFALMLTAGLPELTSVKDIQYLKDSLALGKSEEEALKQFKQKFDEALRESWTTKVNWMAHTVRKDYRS
Summary of the method: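 Kinase binding affinities were measured with KINOMEscan technology. Results are given as Kd, the inhibitor binding constant, in nM.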

[5] = biological target: T5, PI3Kδ (Homo sapiens, UniProt O00329); experiment: Enzyme binding assay (KINOMEscan, DiscoveRx); conditions: PIK3Cδ_h
T5 construct: purchased DiscoveRx Corporation, San Diego (contract service, KINOMEscan)
T5 sequence (O00329 1-1044): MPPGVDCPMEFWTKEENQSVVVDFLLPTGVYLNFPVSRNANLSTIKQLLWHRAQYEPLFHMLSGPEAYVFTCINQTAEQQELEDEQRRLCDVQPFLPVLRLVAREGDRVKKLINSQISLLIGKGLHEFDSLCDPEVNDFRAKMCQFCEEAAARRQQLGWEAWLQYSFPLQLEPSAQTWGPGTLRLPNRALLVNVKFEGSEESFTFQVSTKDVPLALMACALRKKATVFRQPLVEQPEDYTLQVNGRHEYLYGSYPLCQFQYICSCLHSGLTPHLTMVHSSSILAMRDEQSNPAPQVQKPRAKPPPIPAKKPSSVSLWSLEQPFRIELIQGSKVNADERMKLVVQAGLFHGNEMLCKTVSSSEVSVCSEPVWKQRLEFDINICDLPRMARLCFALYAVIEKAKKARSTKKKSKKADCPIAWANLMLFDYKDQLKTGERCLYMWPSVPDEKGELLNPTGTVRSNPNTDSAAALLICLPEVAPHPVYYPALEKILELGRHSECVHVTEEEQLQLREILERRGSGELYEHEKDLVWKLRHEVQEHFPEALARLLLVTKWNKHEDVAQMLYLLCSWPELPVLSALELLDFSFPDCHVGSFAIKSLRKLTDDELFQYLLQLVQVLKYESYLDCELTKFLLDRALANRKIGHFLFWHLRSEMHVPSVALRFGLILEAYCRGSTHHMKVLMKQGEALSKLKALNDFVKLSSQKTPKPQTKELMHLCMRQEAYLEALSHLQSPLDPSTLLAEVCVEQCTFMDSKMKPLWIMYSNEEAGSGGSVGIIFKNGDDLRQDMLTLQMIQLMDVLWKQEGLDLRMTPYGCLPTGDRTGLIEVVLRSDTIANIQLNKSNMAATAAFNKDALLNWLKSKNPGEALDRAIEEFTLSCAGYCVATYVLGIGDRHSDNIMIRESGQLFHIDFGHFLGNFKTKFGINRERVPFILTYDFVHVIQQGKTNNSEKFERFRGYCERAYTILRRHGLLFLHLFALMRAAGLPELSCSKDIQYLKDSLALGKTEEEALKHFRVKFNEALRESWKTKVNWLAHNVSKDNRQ
Summary of the method: as §1

[6] = test system: Akt phosphorylated at Ser473 in PC-3 cells; experiment: Cellular assay: phosphorylation of Akt at Ser473 in PC-3 cells (MSD ELISA); format: cell-based; conditions: PC-3 cells, 60 min compound incubation, MSD ELISA, read-out: IC50 pAkt_S473
Summary of the method: (§2)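 After lysis of treated cells (60 min, 37° C, 0.3% DMSO), phospho-Akt levels were measured by MSD electrochemiluminescence ELISA. Potency was derived from concentration-response curves fitted over five concentrations.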

[7] = test system: Akt phosphorylated at Thr308 in PC-3 cells; experiment: Cellular assay: phosphorylation of Akt at Thr308 in PC-3 cells (MSD ELISA); format: cell-based; conditions: PC-3 cells, 60 min compound incubation, MSD ELISA, read-out: IC50 pAkt_Thr308
Summary of the method: as §2

Compound	Kd [1]	Kd [2]	Kd [3]	Kd [4]	Kd [5]	IC50 [6]	IC50 [7]	IC50 ([6]; Homo sapiens, PC-3, 1 h)	IC50 ([7]; Homo sapiens, PC-3, 1 h)
CN[C@H]1CCN(C(=O)c2cc(C(C)Oc3cc(F)c(F)c(F)c3)c3nc(N4CCOCC4)cnc3c2)C1 (single isomer, unassigned) [Compound 405b]	20.9 µM	4.68 µM	5010 nM	1 nM	219 nM	44 nM	33 nM		
CNCCNC(=O)c1cc(C(C)Nc2cc(F)cc(F)c2)c2nc(N3CCOCC3)cnc2c1 (single isomer, unassigned) [Compound 406b]	> 30.2 µM	3.8 µM	7410 nM	141 nM	3470 nM	> 513 nM	> 513 nM		
CN(C)C(=O)c1cc([C@H]2CCCN2c2cc(F)cc(F)c2)c2nc(N3CCOCC3)cnc2c1 [Compound 1]	28.2 µM	0.313 µM	34 nM	0.3 nM	15 nM	2 nM	3 nM		
C[C@@H]1CN(c2cnc3cc(C(=O)N(C)C)cc(C4CCCN4c4cc(F)cc(F)c4)c3n2)CCO1 (some centres unmarked) [Compound 3]	17.8 µM	0.229 µM	47 nM	1 nM	20 nM	3 nM	~3 nM		
C[C@@H]1CN(c2cnc3cc(C(=O)N(C)C)cc(C4CCCN4c4cc(F)cc(F)c4)c3n2)CCO1 (some centres unmarked) [Compound 4]	> 30.2 µM	> 30.2 µM	23400 nM	1700 nM	22900 nM			> 513 nM	> 513 nM
CC(Nc1cc(F)cc(F)c1)c1cc(C(=O)N2CCOCC2)cc2ncc(N3CCOCC3)nc12 (centres unmarked) [Compound 7]	> 30.2 µM	10 µM	513 nM	2 nM	245 nM	42 nM	21 nM		
Fc1cc(F)cc(N2CCCC2c2cncc3ncc(N4CCOCC4)nc23)c1 (centres unmarked) [Compound 23]	15.1 µM	0.724 µM	324 nM	1 nM	331 nM			~68 nM	42 nM
CC1CN(c2cnc3cc(C(=O)N(C)C)cc(C4CCCN4c4cc(F)cc(F)c4)c3n2)CCO1 (centres unmarked) [Compound 36]	15.8 µM	1.59 µM	224 nM	2 nM	107 nM			10 nM	5 nM
CC(Oc1cc(F)cc(F)c1)c1cc(C(=O)N(C)C)cc2ncc(N3CCOCC3)nc12 (centres unmarked) [Compound 53]	> 30.2 µM	21.4 µM	2950 nM	3 nM	692 nM			214 nM	148 nM
CC(Oc1cc(F)ccc1NCCN)c1cc(C(=O)N(C)C)cc2ncc(N3CCOCC3)nc12 (centres unmarked) [Compound 79]	> 30.2 µM	20 µM	2290 nM	2 nM	204 nM			158 nM	123 nM
CC(Nc1cccc(F)c1)c1cc(C(=O)N(C)C)cc2ncc(N3CCOCC3)nc12 (centres unmarked) [Compound 85]	0.562 µM	1.66 µM	257 nM	0.3 nM	41 nM			48 nM	78 nM
CCN1CCN(C(=O)c2cc(C(C)Oc3cccc(F)c3)c3nc(N4CCOCC4)cnc3c2)CC1 (centres unmarked) [Compound 90]	> 30.2 µM	22.9 µM	9120 nM	17 nM	741 nM			> 513 nM	> 513 nM
COC(=O)c1cc(C(C)Nc2cc(F)cc(Cl)c2)c2nc(N3CCOCC3)cnc2c1 (centres unmarked) [Compound 99]	> 30.2 µM	11.5 µM	9770 nM	52 nM	4680 nM			> 513 nM	355 nM
CC(Nc1cccc(F)c1)c1cc(CO)cc2ncc(N3CCOCC3)nc12 (centres unmarked) [Compound 100]	14.1 µM	1.74 µM	1290 nM	1 nM	295 nM			145 nM	68 nM
CNCCNC(=O)c1cc([C@@H](C)Oc2cccc(F)c2)c2nc(N3CCOCC3)cnc2c1 [Compound 122]	25.7 µM	5.62 µM	2880 nM	0.3 nM	151 nM	40 nM	26 nM		
CNCCNC(=O)c1cc([C@H](C)Oc2cccc(F)c2)c2nc(N3CCOCC3)cnc2c1 [Compound 123]	16.6 µM	12.6 µM	9330 nM	91 nM	2240 nM			> 513 nM	> 513 nM
CC(c1cc(C(=O)N(C)C)cc2ncc(N3CCOCC3)nc12)N(C)c1cccc(Cl)c1 (centres unmarked) [Compound 141]	> 30.2 µM	8.13 µM	6610 nM	6 nM	776 nM			182 nM	102 nM
CC(Nc1cc(F)cc(F)c1)c1cc(C(=O)N2CC3(C2)CS(=O)(=O)C3)cc2ncc(N3CCOCC3)nc12 (centres unmarked) [Compound 148]	> 30.2 µM	8.13 µM	1070 nM	1 nM	316 nM			68 nM	30 nM
CNCC1CCN(C(=O)c2cc(C(C)Nc3cc(F)cc(F)c3)c3nc(N4CCOCC4)cnc3c2)CC1 (centres unmarked) [Compound 176]	> 30.2 µM	3.47 µM	2000 nM	1 nM	102 nM			16 nM	15 nM
CC(Nc1cc(F)cc(F)c1)c1cc(C(=O)N2CCC(NCC(F)(F)F)C2)cc2ncc(N3CCOCC3)nc12 (centres unmarked) [Compound 217]	> 30.2 µM	24 µM	2140 nM	4 nM	1290 nM			79 nM	49 nM
CC(Nc1cc(F)cc(F)c1)c1cc(C(=O)NS(=O)(=O)C2CC2)cc2ncc(N3CCOCC3)nc12 (centres unmarked) [Compound 218]	3.31 µM	3.09 µM	537 nM	5 nM	1170 nM			> 513 nM	> 513 nM
O=C(NCCO)c1cc(NCc2cc(F)cc(F)c2)c2nc(N3CCOCC3)cnc2c1 [Compound 229]	12.6 µM	20.4 µM	3890 nM	7 nM	1740 nM			186 nM	96 nM
Cc1c(CNc2cc(C(=O)NCCO)cc3ncc(N4CCOCC4)nc23)cccc1C(F)(F)F [Compound 231]	> 10 µM	> 30.2 µM	17000 nM	52 nM	> 3310 nM			~457 nM	398 nM
COC(=O)c1cc(C(C)Nc2cc(F)cc(F)c2)c2nc(N3CCOCC3)cnc2c1 (centres unmarked) [Compound 235]	> 32 µM	24.5 µM	> 32000 nM	50 nM	7590 nM			214 nM	79 nM
CC(Nc1cc(F)cc(F)c1)c1cc(C(=O)O)cc2ncc(N3CCOCC3)nc12 (centres unmarked) [Compound 236]	1.32 µM	0.813 µM	112 nM	2 nM	158 nM			> 513 nM	> 513 nM
CC(Nc1cc(F)cc(F)c1)c1cc(C(=O)NS(N)(=O)=O)cc2ncc(N3CCOCC3)nc12 (centres unmarked) [Compound 243]	1.91 µM	0.145 µM	66 nM	1 nM	71 nM			> 513 nM	> 513 nM
